Source: US20240374749A1, “ANTIBODY-EXATECAN CONJUGATES” (Glykos Finland Oy, priority 2023, published 2024)
Where two headings read alike, the source gives them in different places.

Legend:
[1] = test system: HER2+ JIMT-1 breast cancer cells; assay: In vitro cytotoxicity assay (PrestoBlue), Example 9 (FIG. 7); type: cell-based; details: Homo sapiens
Experimental: (§1) HER2+ SK-BR-3 breast cancer cells (ATCC), HCC1954 breast cancer cells (CRL-2338, ATCC), JIMT-1 breast cancer cells (DSMZ) and SKOV-3 ovarian cancer cells (ATCC) were cultured essentially according to the providers' instructions. After incubation with ADCs, cell viability was determined using PrestoBlue reaction using manufacturer's instructions. Cell viability data data was transferred to GraphPad Prism to determine IC50 values. Exatecan (mesylate salt) and DXd (free deruxtecan payload) were purchased from MedChemExpress.

[2] = test system: HER2+ SKOV-3 ovarian cancer cells; assay: In vitro cytotoxicity assay (PrestoBlue), Example 9 (FIG. 8); type: cell-based; details: Homo sapiens, SK-OV-3
Experimental: as §1

[3] = test system: HER2+ SK-BR-3 breast cancer cells; assay: In vitro cytotoxicity assay (PrestoBlue), Example 9 (FIG. 5); type: cell-based; details: Homo sapiens
Experimental: as §1

[4] = test system: HER2+ HCC1954 breast cancer cells; assay: In vitro cytotoxicity assay (PrestoBlue), Example 9 (FIG. 6); type: cell-based; details: Homo sapiens
Experimental: as §1

[5] = test system: MOLM-13 cells; assay: MOLM-13 xenograft model; details: for signs of toxicity: single i.v. dose, clinical signs and general behavior
Experimental: The study was performed at the TCDM, University of Turku, Finland, according to the appropriate ethical committee approval. Cells for inoculation to mice were prepared in vigorous exponential growth phase. 2 million MOLM-13 cells in 50% Matrigel were inoculated s.c. to the flank of each mouse (female athymic nude mice between 8-10 weeks of age). Clinical signs and general behavior of the animals were observed regularly. […] Tumor growth was followed by palpation. After caliper measurement, tumor volume was calculated according to 0.5×length×width^2. […] Mice were evenly divided into study groups, 6 mice in each group, so that each group received similar distribution of different-sized tumors and the average tumor volumes were similar in each group. Intravenous (i.v.) treatment in PBS was given once on day 1 of treatment as a single dose regimen (on day 8 after tumor inoculation). The experiment lasted to day 46 after treatment (day 54 after tumor inoculation).

[6] = Maleimide self-stabilization in storage formulation; type: physicochemical; details: storage formulation of PBS pH 7.4
[7] = Hydrophobic interaction chromatography (HIC-HPLC) of flanvotumab ADCs; type: physicochemical; details: closer to naked antibody = more hydrophilic
Text: Flanvotumab-deruxtecan ADC was generated essentially similarly as FLExM above using deruxtecan linker-payload (DxM, MedChemExpress, Sweden; Scheme 1.4).
HIC-HPLC analysis using TSKgel ButylNPR column was done with Äkta HPLC purifier system.

[8] = test system: SK-MEL-30 melanoma cells; assay: SK-MEL-30 human melanoma xenograft model; type: in vivo, athymic mice; details: single i.v. 10 mg/kg dose
Experimental: SK-MEL-30 human melanoma xenograft model (FIG. 4A): The animal model were performed at the University of Helsinki, Finland, according to the appropriate ethical committee approval. SK-MEL-30 melanoma cells, 2 million cells/mouse, were inoculated subcutaneously (s.c.) to athymic mice.

[9] = Aggregation status by size-exclusion chromatography (SEC-HPLC); type: physicochemical
Experimental: Aggregation status of FLExM01 was evaluated by size-exclusion chromatography (SEC-HPLC; FIG. 2A), showing very low aggregation with high-molecular weight aggregate level of 1.6%. Drug-to-Antibody Ratio (DAR) was determined by reversed-phase chromatography (RP-HPLC; FIG. 2B), showing homogeneous conjugation to DAR=8.

[10] = single i.v. 10 mg/kg dose, day 54 after inoculation

**Q.** What does the source list for `CC[C@@]1(O)C(=O)OCc2c1cc1n(c2=O)Cc2c-1nc1cc(F)c(C)c3c1c2[C@@H](NC(=O)CO)CC3` [DXd, 2-hydroxyacetoyl exatecan]?
**A.** IC50 [1]: 18 nM; IC50 [2]: 9.5 nM; IC50 [3]: 4.3 nM; IC50 ([4]; HCC1954): 5 to 8 nM

**Q.** What does the source list for `CC[C@@]1(O)C(=O)OCc2c1cc1n(c2=O)Cc2c-1nc1cc(F)c(C)c3c1c2[C@@H](N)CC3` [exatecan, Exatecan]?
**A.** IC50 [1]: 3.1 nM; IC50 [2]: 4.7 nM; IC50 [3]: 0.87 nM; IC50 ([4]; HCC1954 cells, FIG. 6, read-out: IC50): 5 to 8 nM

**Q.** What does the source list for “LNDxM: lintuzumab-deruxtecan ADC DAR=8, maleimides not stabilized; 01-03 are batches [reference compound]”?
**A.** deaths due to tumor growth, % ([5]; single i.v. 10 mg/kg dose): 17%; tumor-free mice at the end of the study (mice out of 6) [5, 10]: 2/6; tumor-free mice at the end of the study, % [5, 10]: 33%; deaths due to tumor growth (mice out of 6) ([5]; single i.v. 10 mg/kg dose, death on day 47 after tumor inoculation): ⅙; signs of toxicity [5]: No signs of toxicity were recorded

**Q.** What does the source list for “Lintuzumab: humanized recombinant antibody produced in CHO cells; anti-CD33”?
**A.** tumor growth inhibition (in words) ([5]; single i.v. 10 mg/kg dose, s.c. tumors about 120 mm^3): only slight inhibitory activity to tumor growth; signs of toxicity [5]: No signs of toxicity were recorded

B1: FLExM01: flanvotumab-exatecan ADC with ExM linker-payload, DAR≈8 (conjugate, chains of the INN, looked up)
VH: QVQLVQSGSELKKPGASVKISCKASGYTFTSYAMNWVRQAPGQGLESMGWINTNTGNPTYAQGFTGRFVFSMDTSVSTAYLQISSLKAEDTAIYYCAPRYSSSWYLDYWGQGTLVTVSS
VL: EIVLTQSPATLSLSPGERATLSCRASQSVSSYLAWYQQKPGQAPRLLIYDASNRATGIPARFSGSGSGTDFTLTISSLEPEDFAVYYCQQRSNWLMYTFGQGTKLEIK
modifications: exatecan ExM linker-payload, DAR 8
**Q.** With B1 as the molecule, how does the “maleimide self-stabilization (in words)” value [6] read?
**A.** self-stabilized by maleimide hydrolysis

**Q.** What about the HIC-HPLC elution volume [7] of the same molecule?
**A.** 6.5 mL

**Q.** And the toxicities observed [8]?
**A.** No toxicities were observed

**Q.** What about the “tumor growth inhibition (in words)” value ([8]; s.c. tumors about 200 mm^3) of the same molecule?
**A.** inhibited markedly more in the ADC-treated mice than either the antibody-treated or non-treated mice

**Q.** What about the “high-molecular weight aggregate level” value ([9]; SEC-HPLC) of the same molecule?
**A.** 1.6%

B2: Flanvotumab: naked antibody, parent of the anti-TYRP-1 ADC (antibody, chains of the INN, looked up, V domains shown)
VH: B1 VH
VL: B1 VL
**Q.** With B2 as the molecule, how does the toxicities observed [8] read?
**A.** No toxicities were observed

B3: FLDxM01: Flanvotumab-deruxtecan ADC, DAR≈8 (conjugate, chains of the INN, looked up)
VH: B1 VH
VL: B1 VL
modifications: deruxtecan, DAR 8
**Q.** What does the source list for B3?
**A.** HIC-HPLC elution volume [7]: 7.8 mL; aggregates (in words) ([9]; MALDI-TOF MS, SEC-HPLC and RP-HPLC): low aggregates
